Tests used:
[1] = system: Clearfield sunflower variety A; test: Greenhouse spray injury rating (Example 5); type: in vivo; settings: variety A, 14 DAT
From the text: (§1) Methods: Sunflower lines S4897, Clearfield® sunflower varieties A, B, C and a conventional non-Clearfield variety were sprayed with three rates of imazamox (Raptor™), 100, 200 and 300 gm ai/ha plus 0.5% Sun It II and two rates of imazapyr (Arsenal™) 160 and 360 gm ai/ha plus 0.5% Sun It II when the plants were at the two to three leaf stage. Ratings were taken at 14 days after application (DAT) for injury. Injury was rated on a scale from 0 to 9 where […] to 9=dead plant. Twelve plants were sprayed per herbicide/rate treatment. Statistical analysis was conducted with STATGRAPHICS Plus 5.0 by using ANOVA and LSD procedures.
(§2) Results: After plants were sprayed, it was realized that a height difference between S4897 and other sunflower varieties would have impacted the actual herbicide dose that was delivered. The spray boom height had been calibrated against S4897 and since the other varieties were taller and closer to the boom they would have received a greater dose of herbicide. Rates were recalibrated for the other varieties to determine the approximate dose they would have received. Assessments were made as presented in Table 2 since it was not possible to make a direct rate comparison due to the effect of the height. For example injury scores were compare for S4897 treated imazamox rate 100 gm ai/ha to the other varieties treated at 75 gm ai/ha. The treatment dose of 300 gm ai/ha for line S4897 was equivalent to the treatment of 200 gm ai/ha for the other varieties, which approximately was 300 gm ai/ha.

[2] = system: Clearfield sunflower variety B; test: Greenhouse spray injury rating (Example 5); type: in vivo; settings: variety B, 14 DAT
From the text: as §1, §2

[3] = system: Clearfield sunflower variety C; test: Greenhouse spray injury rating (Example 5); type: in vivo; settings: variety C, 14 DAT
From the text: as §1, §2

Sunflower line S4897 = test: Greenhouse spray injury rating (Example 5); type: in vivo; settings: 14 DAT
From the text: as §1, §2

[4] = system: conventional non-Clearfield variety; test: Greenhouse spray injury rating (Example 5); type: in vivo; settings: non-Clearfield, 14 DAT
From the text: as §1, §2

[5] = system: AHAS of S4897 sunflower plants (Ala107-to-Thr); test: AHAS activity inhibition (Example 5); type: biochemical, Helianthus annuus; settings: higher concentration of imazamox; compared to a Clearfield sunflower and conventional non Clearfield variety (FIG. 7)
Experimental: AHAS activity analysis was also conducted by selecting actively growing young leaves from plants that were not sprayed with herbicide at approximately four weeks after planting.

S4897 sunflower plants = test: Greenhouse spray treatment with imazamox (FIG. 3, FIG. 4); type: in vivo, Helianthus annuus; settings: imazamox 100 or 200 g ai/ha, evaluated 17 days after application
Experimental: (§3) The S4897 and IMISUN-1 sunflower plants were spray-treated with imazamox at rate of 200 g ai/ha. […] The photograph was taken a few days after the plants were spray treated.
(§4) FIG. 4 is graphical illustration of herbicide injury in a greenhouse test following the spray treatment of IMISUN-1, wild-type, and S4897 sunflower plants with imazamox at either 100 (light columns) or 200 g ai/ ha (dark columns). […] Herbicide injury was evaluated 17 days after the imazamox application.

[6] = system: wild-type sunflower plants; test: as above; type: in vivo, Helianthus annuus; settings: imazamox at either 100 or 200 g ai/ha
Experimental: as §3, §4

S4897 plants = system: S4897 plants; parameters: species or system Helianthus annuus; settings: in vivo
Experimental: In field trials in Argentina, S4897 plants were tested for resistance to imazapic. […] This trial had single row plots and was treated on a windy day, so the actual herbicide dose reaching the plants was likely less than was applied.

COCc1cnc(C2=NC(C)(C(C)C)C(=O)N2)c(C(=O)O)c1 (stereo not shown) [imazamox]
Injury (scale 0 to 9) ([1]; imazamox 75 gm ai/ha (100/75)): 4.3 c | Injury (scale 0 to 9) ([1]; imazamox 150 gm ai/ha (column 200/150)): significantly in juried and had stopped growing | Injury (scale 0 to 9) ([1]; imazamox 150 gm ai/ha (column 200/150), listed as Imazamox): 4.6 c | Injury (scale 0 to 9) ([1]; imazamox 300 gm ai/ha): 6.5 days | Injury (scale 0 to 9) ([2]; imazamox 75 gm ai/ha (100/75)): 1.9 b | Injury (scale 0 to 9) ([2]; imazamox 150 gm ai/ha): 4.8 c | Injury (scale 0 to 9) ([2]; imazamox 300 gm ai/ha): 5.3 c | Injury (scale 0 to 9) ([3]; imazamox 75 gm ai/ha (100/75)): 1.8 b | Injury (scale 0 to 9) ([3]; imazamox 150 gm ai/ha): 2.9 b | Injury (scale 0 to 9) ([3]; imazamox 300 gm ai/ha): 4.6 b | Injury (scale 0 to 9) (Sunflower line S4897; imazamox 100 gm ai/ha + 0.5% Sun It II, 0 no injury, 9 dead plant): 0.5 a | Injury (scale 0 to 9) (Sunflower line S4897; imazamox 200 gm ai/ha): little to no injury | Injury (scale 0 to 9) (Sunflower line S4897; imazamox 200 gm ai/ha, listed as Imazamox): 0.8 a | Injury (scale 0 to 9) (Sunflower line S4897; imazamox 300 gm ai/ha): very little injury | Injury (scale 0 to 9) (Sunflower line S4897; imazamox 300 gm ai/ha, listed as Imazamox): 0.8 a | Injury (scale 0 to 9) ([4]; imazamox 75 gm ai/ha (100/75)): 7.2 days | Injury (scale 0 to 9) ([4]; imazamox 150 gm ai/ha): 8.2 days | Injury (scale 0 to 9) ([4]; imazamox 300 gm ai/ha): 8.7 e | inhibition of AHAS activity [5]: less inhibition | herbicide injury (resistance or tolerance vs IMISUN-1 and wild-type) (S4897 sunflower plants): significantly greater resistance or tolerance | survival after spray treatment [6]: did not survive

Cc1cnc(C2=NC(=O)C(C)(C(C)C)N2)c(C(=O)O)c1 (stereo not shown) [imazapic]
resistance to imazapic compared with IMISUN-1 (S4897 plants): clearly superior

Source: patent US20180016593A1, “HERBICIDE-RESISTANT SUNFLOWER PLANTS, POLYNUCLEOTIDES ENCODING HERBICIDE-RESISTANT ACETOHYDROXYACID SYNTHASE LARGE SUBUNIT PROTEINS, AND METHODS OF USE” (priority 2005, published 2018)
